According to PubChem BioAssay AID588780 (Sanford-Burnham Center for Chemical Genomics, 2011):
Calls of active or inactive are those of the source.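 How the source made its calls: active means compounds whose fitted half-maximal concentration in the cell-protection dose series is at or below a set limit; inactive means the rest.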

Test system: H9c2 cardiomyocytes, 2-deoxyglucose stress, ATP luminescence, 2 h
Assay: H9c2 cell survival under 2-deoxyglucose stress – uHTS hits, dose response (AID 588780)

| SMILES | IC50 |
| --- | --- |
| CCOC(=O)N1CCN(S(=O)(=O)c2ccc(C(=O)NNc3nc4c(C)cccc4s3)cc2)CC1 | > 79 µM (inactive) |
| O=C(CN1C(=O)C2C3C=CC(C3)C2C1=O)Nc1nc(-c2ccccn2)cs1 (configuration not stated) | 29 µM |
| O=C(O)c1nn(CCOc2ccc(Br)cc2)c(=O)c2ccccc12 | > 79 µM (inactive) |
| COC(=O)c1cc2c(-c3ccccc3)cc3ccccn3c-2c1C(=O)OC | 13 µM |
| CC(=O)c1ccccc1OCCCN1CCCCC1 | > 79 µM (inactive) |
| CC(OC(=O)Cn1[nH]c(=O)c2ccccc2c1=O)C(=O)Nc1cccc(Cl)c1 (configuration not stated) | > 79 µM (inactive) |
| Nc1ccc(-c2n[nH]c(=O)c3ccccc23)cc1N | > 79 µM (inactive) |
| CCCCn1nc(C(=O)Oc2ccc3c(C)cc(=O)oc3c2)c2ccccc2c1=O | > 79 µM (inactive) |
| Cc1nn(-c2ccccc2)c(N2CCCC2)c1/C=N/NC(=O)c1cc(-c2ccccn2)nc2ccccc12 | > 79 µM (inactive) |
| COc1ccc(Cl)cc1NC(=O)CN(C)C(=O)Cn1[nH]c(=O)c2ccccc2c1=O | > 79 µM (inactive) |
| CCN1CCN(c2nc3c(c(=O)[nH]2)CCC3)CC1 | > 79 µM (inactive) |
| COC(=O)Oc1ccc(/C=C/C(=O)OC(C)C)cc1OC(=O)OC | 63.1 µM (inactive) |
| COc1ccc(CNn2c(-c3cccs3)nc3ccccc3c2=O)cc1OC | 11.8 µM |
| COc1ccc(-c2cc(C(=O)NC(C)c3ccccn3)c3ccccc3n2)cc1OC (configuration not stated) | 13 µM |
| Nc1cc2[nH]c(=O)c3ccccc3c2cc1Br | > 79 µM (inactive) |
| CCc1nc2ccc(C(=O)NCc3cccs3)cn2c1N(C)Cc1nccs1 | 22.4 µM |
| COc1cc2c(cc1OC)C(COc1ccc3c(C)cc(=O)oc3c1)N(C(=O)c1ccco1)CC2 (configuration not stated) | 10.1 µM |
| COc1cccc(NC(=O)CN(C)C(=O)CCCc2nc3ccccc3c(=O)[nH]2)c1 | > 79 µM (inactive) |
| CC(C)c1ccc(S(=O)(=O)N2CCN(CC(=O)c3ccc(O)c(O)c3)CC2)cc1 | 21.3 µM |
| CCOC(=O)C1=C(C)NC(C)=C(C(=O)OCCNC(=O)c2cccnc2)C1c1cccc([N+](=O)[O-])c1 (configuration not stated) | 28.6 µM |
| COc1ccc(NS(=O)(=O)c2cc(NC(=O)Cc3n[nH]c(=O)c4ccccc34)ccc2OC)cc1 | > 79 µM (inactive) |
| CC(OC(=O)Cn1[nH]c(=O)c2ccccc2c1=O)C(=O)NC1(C#N)CCCCC1 (configuration not stated) | > 79 µM (inactive) |
| COC(=O)[C@@]12CCCCN1[C@H](c1ccc(-c3cc(C(C)=O)cs3)cc1)[C@H]1C(=O)N(C)C(=O)[C@H]12 | > 79 µM (inactive) |

| SMILES | IC50 |
| --- | --- |
| Cc1cccc(NC(=O)c2nc[nH]c2C(=O)NCCCCNC(=O)c2[nH]cnc2C(=O)Nc2cccc(C)c2)c1 | > 79 µM (inactive) |
| Cc1nn(-c2ccccc2)c(Cl)c1C(=O)NNC(=O)c1ccccc1O | > 79 µM (inactive) |
| N#Cc1ccccc1OCC(=O)Nc1nc(-c2ccccn2)cs1 | > 79 µM (inactive) |
| O=C1c2ccccc2NC(c2ccc(-c3ccc(Br)cc3)o2)N1O (configuration not stated) | 19 µM |
| COc1ccc(Cl)cc1NC(=O)CN(C)C(=O)Cc1n[nH]c(=O)c2ccccc12 | > 79 µM (inactive) |
| COCCCN(Cc1ccco1)C(=O)Cn1ncc2c([nH]c3ccccc32)c1=O | 13.8 µM |
| O=C(Nc1ccc2nc(N3CCOCC3)sc2c1)c1cc2ccccc2o1 | > 79 µM (inactive) |
| CCOC(=O)C1C(=O)NC(SCC(=O)OC)=C(C#N)C1c1ccccc1OCC (configuration not stated) | 17 µM |
| O=C(Nc1cc(=O)c2ccccc2o1)N1CCCCC1 | > 79 µM (inactive) |
| Cn1c(=O)[nH]c(=O)c2c1nc(Br)n2CC(O)COc1ccc(Cl)cc1 (configuration not stated) | 15.2 µM |
| CC(OC(=O)Cn1[nH]c(=O)c2ccccc2c1=O)C(=O)Nc1ccc(F)cc1 (configuration not stated) | > 79 µM (inactive) |
| CCOc1ccc(N(CC(=O)N/N=C/c2ccccn2)S(=O)(=O)c2ccc(Cl)cc2)cc1 | > 79 µM (inactive) |
| O=C(Cn1[nH]c(=O)c2ccccc2c1=O)NC1CCN(Cc2ccccc2)CC1 | > 79 µM (inactive) |
| O=C(CSc1nc2ccccc2o1)NCc1n[nH]c(=O)c2ccccc12 | 13.9 µM |
| CCOC(=O)c1cc2c(=O)n3cccc(C)c3nc2n(CCCOC)c1=NC(=O)c1cccnc1 | > 79 µM (inactive) |
| CC(=O)Nc1ccc(NS(=O)(=O)c2cc(-c3n[nH]c(=O)c4ccccc34)ccc2C)cc1 | > 79 µM (inactive) |
| Cc1nc2ccccc2c2c(N)c3ccccc3n12 | 26.5 µM |
| Cc1ccc(C)c2[nH]c(=O)c(CN(Cc3ccc4c(c3)OCO4)Cc3nnnn3Cc3ccco3)cc12 | 13.1 µM |
| O=C(NCCN1CCN(c2ccccc2F)CC1)c1cccn2c(=O)c3ccccc3nc12 | 11.2 µM |
| Brc1ccc(CSc2ccc3nnc(-c4cccnc4)n3n2)cc1 | > 79 µM (inactive) |
| COC(=O)c1cccc(S(=O)(=O)N(Cc2ccco2)Cc2cc3cc(OC)ccc3[nH]c2=O)c1 | > 79 µM (inactive) |
| Cc1ccc(C)c(S(=O)(=O)N(C(=O)c2ccncc2)c2ccc(OC(=O)c3ccncc3)cc2)c1 | > 79 µM (inactive) |
| Cc1cc(-n2c(C)cc(C(=O)COc3ccc4ccc(=O)oc4c3)c2C)no1 | > 79 µM (inactive) |

| SMILES | IC50 |
| --- | --- |
| O=C(Nc1cc(S(=O)(=O)N2CCOCC2)ccc1N1CCCCC1)c1cc(-c2ccccn2)nc2ccccc12 | > 79 µM (inactive) |
| CCOC(=O)c1cccc(C2=C(CNC(=O)c3cccnc3)[C@H]3CC[C@@H](C2)N3Cc2ccccc2)c1 | > 79 µM (inactive) |
| O=c1[nH]nc(-c2cccs2)c2ccccc12 | 5.51 µM |
| COc1ccc(C(=O)Nc2cccc(NC(=O)c3ccc(OC)c(OC)c3)n2)cc1OC | > 79 µM (inactive) |
| O=c1[nH]n(Cc2ccccc2)c(=O)c2ccccc12 | > 79 µM (inactive) |
| COc1ccc(C(=O)COC(=O)C(CCCCN2C(=O)C3C4C=CC(C4)C3C2=O)N2C(=O)C3C4C=CC(C4)C3C2=O)cc1 (configuration not stated) | 13.7 µM |
| COc1cccc(-c2cnc3c(NC=O)cc(-c4cccc(NC(C)=O)c4)cn23)c1 | > 79 µM (inactive) |
| COc1ccnc(Oc2ccc(F)cc2)c1C(=O)N/C=N/OCc1ccc(Cl)cc1Cl | 12.3 µM |
| Cc1ccc(-c2nn3c(C)nnc3c3ccccc23)cc1S(=O)(=O)NC(C)c1ccccc1 (configuration not stated) | > 79 µM (inactive) |
| O=C(NCC(=O)N(Cc1cccs1)C(C(=O)NC1CCCC1)c1ccco1)c1cccs1 (configuration not stated) | 13.3 µM |
| CC(OC(=O)Cc1n[nH]c(=O)c2ccccc12)C(=O)Nc1cccc([N+](=O)[O-])c1 (configuration not stated) | 44.4 µM (inactive) |
| CCC(CC)C(=O)N(CCc1ccc(OC)cc1)Cc1nc2ccccc2c(=O)[nH]1 | > 79 µM (inactive) |
| COc1ccc(CN(C)C(=O)C(Cc2ccccc2)NC(=O)c2ccccc2)cc1F (configuration not stated) | 7.05 µM |
| COc1ccc(C(=O)COc2ccccc2C(N)=O)cc1 | > 79 µM (inactive) |
| O=C(CCc1nc2ccccc2c(=O)[nH]1)N1CCN(c2ccc(F)cc2)CC1 | > 79 µM (inactive) |
| Oc1c(Br)cc(Br)cc1C=NCc1ccc(F)cc1 | > 79 µM (inactive) |
| Nc1c(C(=O)NC2CC2)c2nc3ccccc3nc2n1-c1ccc2c(c1)OCO2 | > 79 µM (inactive) |
| O=C(Oc1ccc2c(-c3ccccc3)cc(=O)oc2c1)C1CCCCC1 | 32.9 µM (inactive) |
| CCOC(=O)C1=C(COC(=O)c2cc(OC)c(OC)c(OC)c2)NC(=O)NC1C (configuration not stated) | 50 µM (inactive) |
| CC(OC(=O)CCc1nc2ccccc2c(=O)[nH]1)C(=O)NCc1ccc2c(c1)OCO2 (configuration not stated) | > 79 µM (inactive) |
| COc1cc(CN2C[C@@H](CO)O[C@@H](n3cnc4c(Nc5ccccc5)ncnc43)C2)cc(OC)c1OC | 12.7 µM |
